Laboratory results reported in US7071194B2, “Method for improving respiratory function and inhibiting muscular degeneration” (priority 2000, dated 2006).

Key:
T8 SCI rats = test: Respiratory function by head-out plethysmograph in conscious rats after T8 contusion SCI; format: in vivo, rat; settings: for Te (expiratory time) / Ti (inspiratory time) / Tv (tidal volume) / Ve (minute ventilation): 24 hours after SCI
Description: Female Sprague-Dawley rats (250–280 g and 360–390 g; Taconic, Germantown, N.Y.) were anesthetized with 4% chloral hydrate (360 mg/kg, i.p.). An incomplete spinal courd contusion injury was produced at T8 with a weight drop device (10 g×2.5 cm) as previously described (Wrathall et al., 1985). After SCI, manual expression of bladders was performed twice daily until a reflex bladder was established. Animal care also included housing the rats in pairs to reduce isolation-induced stress, maintaining ambient temperature at 22–25° C., and using highly absorbent bedding. No prophylactic antibiotics were given.
Experiments were conducted in unanesthetized, awake, spontaneously breathing rats at 24 hours prior to SCI, at 24 hours p.i. and weekly afterwards at 1,2,3, and 4 weeks p.i. (1) Acclimatization of the Animals. […] Animals were placed in the body cylinder of the plethysmograph (FIG. 1a) for 60 minutes per day for at least 5 days. […] (2) Non-Invasive Measurements of Respiratory Rate, Tidal Volume and Minute Ventilation. Non-invasive measurements of respiratory function in conscious rats were performed with a restrained head-out plethysmograph specially designed for rodents (BUXCO Electronics, Inc., Sharon, Conn.) (FIG. 1a). The plethymograph apparatus has a neck seal that prevents leakage of air from between the animal's neck and the plethymograph opening. Displacement of the thoracic wall produced by the animal's respiratory movements causes changes in the cylinder pressure, which results in air flowing across a pneumotachograph located on the wall of the cylinder. The pressure drop across the pneumotachograph is measured with a pressure transducer and is proportional to the flow. This signal is amplified and integrated into volume. From measurements of volume and flow, a computer and appropriate software provides respiratory parameters, such as respiratory rate (f), tidal volume (Vt), minute ventilation (Ve), peak inspiratory flow, peak expiratory flow, inspiratory time (Ti), expiratory time (Te), and accumulated volume. An additional opening on the wall of the box allows volume calibration by injecting and removing air from the box with a calibrated syringe.
The noise level in the laboratory was kept to a minimum in order not to startle the animals. Further, the animals were visually isolated from the investigators by means of a chamber made of an opaque material that surrounded and covered the front-end of the body plethysmograph (FIG. 1b). Baseline recordings lasted for 4 minutes. (3) Measurement of Ventilatory Response to Carbon Dioxide. For measurement of the ventilatory response to CO2, animals were exposed to air containing 7% CO2. The animals breathed from a funnel fixed in the front wall of a chamber made of an opaque material (FIG. 1b). The animals were exposed to the gas mixture containing 7% CO2 (mixed with 60% O2 and 33% N2) for 5 minutes with recording of respiratory activity for another 2 minutes (a total recording duration of 7 minutes).
The 5HT1A receptor antagonist, p-MPPI (RBI, Natick, Mass.) was also dissolved in 0.9% saline and given i.p. in a dose of 3 mg/kg (pH 7.4 and final volume of 0.5 ml). […] Vehicle solution (VEH) was 0.9% saline and also injected at i.p. (pH 7.4; volume: 0.5 ml/rat).
Baseline respiratory function was measured under room air ventilation and after the animal was stabilized inside a boy cylinder (FIGS. 1a and b) for 30 minutes at each time point prior to SCI and after injury. Immediately following the evaluation of baseline respiration, the animals were let to breathe air containing 7% CO2 for 7 minutes to monitor their ventilatory response to CO2 stimulus (Teng et al., 1998a and 1999).

child with apneusis = settings: buspirone orally 8 mg/day; cited from earlier work
SOD1 mice = test: Respiratory function (tidal volume, respiratory rate) in SOD1 mice, model of familial ALS; format: in vivo, mouse
Description: SOD1 mice are mutant mice which provide an animal model for an inherited form of ALS which is more commonly referred to as familial ALS. […] These parameters of respiratory function were subsequently reevaluated 2 minutes after drug treatment.

mdx mutant mice = settings: clenbuterol orally 1.0–1.5 mg/kg body weight/day, one year, cited from earlier work
[1] = 7% CO2 at 15 & 16 min after buspirone 1.5 mg/kg i.p.
[2] = baseline (room air), 3 & 4 min post buspirone 1.5 mg/kg i.p.
[3] = baseline (room air), 8 & 9 min post buspirone 1.5 mg/kg i.p.
[4] = 24 hours p.i., buspirone 1.5 mg/kg i.p.
[5] = buspirone 3.0 mg/kg i.p. or s.c. (FIGS. 6 and 7)

| Compound | Te (expiratory time) (T8 SCI rats; [1]) | Ti (inspiratory time) (T8 SCI rats; [1]) | Tv (tidal volume) (T8 SCI rats; [1]) [mL] | Ve (minute ventilation) (T8 SCI rats; [1]) [mL/min] | Te (expiratory time) (T8 SCI rats; [2]) | Ti (inspiratory time) (T8 SCI rats; [2]) | Tv (tidal volume) (T8 SCI rats; [2]) [mL] | Ve (minute ventilation) (T8 SCI rats; [2]) [mL/min] | Te (expiratory time) (T8 SCI rats; [3]) | Ti (inspiratory time) (T8 SCI rats; [3]) | Ve (minute ventilation) (T8 SCI rats; [3]) [mL/min] | SCI reduced Vt values after treatment (T8 SCI rats; [4]) | duration of effect on Vt (printed Bt) (T8 SCI rats; [4]) | effect on abnormal respiratory function resulting from T8 SCI (T8 SCI rats; [4]) | apneusis (child with apneusis) | respiratory frequency (SOD1 mice; [5]) | tidal volume (SOD1 mice; [5]) | respiratory function (tidal volume, respiratory rate) (SOD1 mice; buspirone 3.0 mg/kg subcutaneous, 2 minutes after treatment) | increase in myosin concentration of mdx diaphram (DIA) (mdx mutant mice; mdx mice) [%] | soleus (SOL) weight and SOL muscle weight to body weight ratio (mdx mutant mice; normal control and mdx mice) |
| --- | --- | --- | --- | --- | --- | --- | --- | --- | --- | --- | --- | --- | --- | --- | --- | --- | --- | --- | --- | --- |
| O=C1CC2(CCCC2)CC(=O)N1CCCCN1CCN(c2ncccn2)CC1 [buspirone] | 0.21 ± 0.03 | 0.17 ± 0.01 | 1.46 ± 0.14 | 240.9 ± 44.8 | 0.27 ± 0.03↑ | 0.19 ± 0.01 | 1.17 ± 0.13 | 171.3 ± 30.1 | 0.40 ± 0.05 | 0.20 ± 0.03 | 101.8 ± 11.4 | levels indiscenible from pre-injury readings | up to 9 minutes | reversed the abnormal respiratory function | reverses apneusis | reduces | significantly increases | significantly improved | – | – |
| CC(C)(C)NCC(O)c1cc(Cl)c(N)c(Cl)c1 (centres unmarked) [clenbuterol] | – | – | – | – | – | – | – | – | – | – | – | – | – | – | – | – | – | – | 22 | significantly increase |
